From the NIST ThermoML archive (doi:10.1021/je9004992)
Numbers after ± are expanded uncertainties.

Assay: molar heat capacity at constant pressure
Conditions: Liquid, Small sample (50 mg) DSC

CCCCn1cc[n+](C)c1.F[B-](F)(F)F [1-butyl-3-methylimidazolium tetrafluoroborate]
molar heat capacity at constant pressure [J/K/mol]
Conditions	283.15 K	288.15 K	293.15 K	298.15 K	303.15 K	308.15 K	313.15 K	318.15 K	323.15 K
100 kPa	360.25 ± 5.6	362.17 ± 5.6	364.16 ± 5.6	366.2 ± 5.7	368.3 ± 5.7	370.45 ± 5.7	372.67 ± 5.8	374.95 ± 5.8	377.29 ± 5.8
2000 kPa	360.28 ± 5.6	362.2 ± 5.6	364.17 ± 5.6	366.21 ± 5.7	368.31 ± 5.7	370.47 ± 5.7	372.69 ± 5.8	374.97 ± 5.8	377.31 ± 5.8
4000 kPa	360.31 ± 5.6	362.22 ± 5.6	364.19 ± 5.6	366.23 ± 5.7	368.33 ± 5.7	370.49 ± 5.7	372.71 ± 5.8	374.99 ± 5.8	377.34 ± 5.8
6000 kPa	360.34 ± 5.6	362.24 ± 5.6	364.21 ± 5.6	366.25 ± 5.7	368.34 ± 5.7	370.5 ± 5.7	372.73 ± 5.8	375.01 ± 5.8	377.36 ± 5.8
8000 kPa	360.37 ± 5.6	362.27 ± 5.6	364.23 ± 5.6	366.26 ± 5.7	368.36 ± 5.7	370.52 ± 5.7	372.74 ± 5.8	375.03 ± 5.8	377.39 ± 5.8
10000 kPa	360.39 ± 5.6	362.29 ± 5.6	364.25 ± 5.6	366.28 ± 5.7	368.37 ± 5.7	370.53 ± 5.7	372.76 ± 5.8	375.05 ± 5.8	377.41 ± 5.8
12000 kPa	360.42 ± 5.6	362.31 ± 5.6	364.27 ± 5.6	366.3 ± 5.7	368.39 ± 5.7	370.55 ± 5.7	372.78 ± 5.8	375.08 ± 5.8	377.44 ± 5.8
14000 kPa	360.45 ± 5.6	362.34 ± 5.6	364.29 ± 5.6	366.31 ± 5.7	368.4 ± 5.7	370.57 ± 5.7	372.8 ± 5.8	375.1 ± 5.8	377.47 ± 5.8
20000 kPa	360.54 ± 5.6	362.4 ± 5.6	364.35 ± 5.6	366.36 ± 5.7	368.45 ± 5.7	370.61 ± 5.7	372.85 ± 5.8	375.16 ± 5.8	377.54 ± 5.8
30000 kPa	360.68 ± 5.6	362.52 ± 5.6	364.44 ± 5.7	366.45 ± 5.7	368.53 ± 5.7	370.69 ± 5.7	372.94 ± 5.8	375.26 ± 5.8	377.67 ± 5.8
40000 kPa	360.82 ± 5.6	362.64 ± 5.6	364.54 ± 5.7	366.53 ± 5.7	368.61 ± 5.7	370.77 ± 5.7	373.03 ± 5.8	375.37 ± 5.8	377.8 ± 5.8
50000 kPa	360.96 ± 5.6	362.75 ± 5.6	364.64 ± 5.7	366.61 ± 5.7	368.69 ± 5.7	370.85 ± 5.8	373.12 ± 5.8	375.47 ± 5.8	377.93 ± 5.8
60000 kPa	361.11 ± 5.6	362.87 ± 5.6	364.73 ± 5.7	366.7 ± 5.7	368.77 ± 5.7	370.93 ± 5.8	373.21 ± 5.8	375.58 ± 5.8	378.05 ± 5.9

CCn1cc[n+](C)c1.F[B-](F)(F)F [1-ethyl-3-methylimidazolium tetrafluoroborate]
molar heat capacity at constant pressure [J/K/mol]
Conditions	283.15 K	288.15 K	293.15 K	298.15 K	303.15 K	308.15 K	313.15 K	318.15 K	323.15 K
100 kPa	300.19 ± 4.7	301.67 ± 4.7	303.23 ± 4.7	304.87 ± 4.7	306.58 ± 4.8	308.36 ± 4.8	310.23 ± 4.8	312.17 ± 4.8	314.18 ± 4.9
2000 kPa	300.22 ± 4.7	301.7 ± 4.7	303.26 ± 4.7	304.9 ± 4.7	306.61 ± 4.8	308.4 ± 4.8	310.26 ± 4.8	312.2 ± 4.8	314.21 ± 4.9
4000 kPa	300.24 ± 4.7	301.73 ± 4.7	303.29 ± 4.7	304.93 ± 4.7	306.64 ± 4.8	308.43 ± 4.8	310.29 ± 4.8	312.23 ± 4.8	314.24 ± 4.9
6000 kPa	300.27 ± 4.7	301.76 ± 4.7	303.32 ± 4.7	304.96 ± 4.7	306.67 ± 4.8	308.46 ± 4.8	310.32 ± 4.8	312.26 ± 4.8	314.27 ± 4.9
8000 kPa	300.3 ± 4.7	301.79 ± 4.7	303.35 ± 4.7	304.99 ± 4.7	306.7 ± 4.8	308.49 ± 4.8	310.35 ± 4.8	312.29 ± 4.8	314.3 ± 4.9
10000 kPa	300.33 ± 4.7	301.82 ± 4.7	303.38 ± 4.7	305.02 ± 4.7	306.73 ± 4.8	308.52 ± 4.8	310.38 ± 4.8	312.32 ± 4.8	314.33 ± 4.9
12000 kPa	300.35 ± 4.7	301.85 ± 4.7	303.41 ± 4.7	305.05 ± 4.7	306.77 ± 4.8	308.55 ± 4.8	310.42 ± 4.8	312.35 ± 4.8	314.36 ± 4.9
14000 kPa	300.38 ± 4.7	301.87 ± 4.7	303.44 ± 4.7	305.08 ± 4.7	306.8 ± 4.8	308.59 ± 4.8	310.45 ± 4.8	312.38 ± 4.8	314.39 ± 4.9
20000 kPa	300.46 ± 4.7	301.96 ± 4.7	303.53 ± 4.7	305.18 ± 4.7	306.89 ± 4.8	308.68 ± 4.8	310.54 ± 4.8	312.47 ± 4.8	314.48 ± 4.9
30000 kPa	300.6 ± 4.7	302.1 ± 4.7	303.68 ± 4.7	305.33 ± 4.7	307.05 ± 4.8	308.84 ± 4.8	310.7 ± 4.8	312.63 ± 4.8	314.63 ± 4.9
40000 kPa	300.73 ± 4.7	302.25 ± 4.7	303.83 ± 4.7	305.49 ± 4.7	307.21 ± 4.8	309 ± 4.8	310.86 ± 4.8	312.79 ± 4.8	314.78 ± 4.9
50000 kPa	300.87 ± 4.7	302.39 ± 4.7	303.98 ± 4.7	305.64 ± 4.7	307.37 ± 4.8	309.16 ± 4.8	311.02 ± 4.8	312.94 ± 4.8	314.93 ± 4.9
60000 kPa	301 ± 4.7	302.54 ± 4.7	304.13 ± 4.7	305.8 ± 4.7	307.52 ± 4.8	309.32 ± 4.8	311.17 ± 4.8	313.1 ± 4.8	315.08 ± 4.9

CCCCCCn1cc[n+](C)c1.F[B-](F)(F)F [1-hexyl-3-methylimidazolium tetrafluoroborate]
molar heat capacity at constant pressure [J/K/mol]
Conditions	283.15 K	288.15 K	293.15 K	298.15 K	303.15 K	308.15 K	313.15 K	318.15 K	323.15 K
100 kPa	422.77 ± 6.5	425 ± 6.6	427.34 ± 6.6	429.8 ± 6.7	432.36 ± 6.7	435.03 ± 6.7	437.81 ± 6.8	440.7 ± 6.8	443.69 ± 6.9
2000 kPa	422.81 ± 6.5	425.04 ± 6.6	427.38 ± 6.6	429.83 ± 6.7	432.39 ± 6.7	435.06 ± 6.7	437.84 ± 6.8	440.72 ± 6.8	443.72 ± 6.9
4000 kPa	422.85 ± 6.5	425.08 ± 6.6	427.42 ± 6.6	429.87 ± 6.7	432.43 ± 6.7	435.1 ± 6.7	437.87 ± 6.8	440.75 ± 6.8	443.74 ± 6.9
6000 kPa	422.89 ± 6.5	425.12 ± 6.6	427.46 ± 6.6	429.91 ± 6.7	432.47 ± 6.7	435.13 ± 6.7	437.9 ± 6.8	440.78 ± 6.8	443.77 ± 6.9
8000 kPa	422.94 ± 6.5	425.17 ± 6.6	427.5 ± 6.6	429.95 ± 6.7	432.5 ± 6.7	435.17 ± 6.7	437.93 ± 6.8	440.81 ± 6.8	443.8 ± 6.9
10000 kPa	422.98 ± 6.5	425.21 ± 6.6	427.54 ± 6.6	429.99 ± 6.7	432.54 ± 6.7	435.2 ± 6.7	437.97 ± 6.8	440.84 ± 6.8	443.82 ± 6.9
12000 kPa	423.02 ± 6.5	425.25 ± 6.6	427.59 ± 6.6	430.03 ± 6.7	432.58 ± 6.7	435.23 ± 6.7	438 ± 6.8	440.87 ± 6.8	443.85 ± 6.9
14000 kPa	423.07 ± 6.5	425.29 ± 6.6	427.63 ± 6.6	430.07 ± 6.7	432.61 ± 6.7	435.27 ± 6.7	438.03 ± 6.8	440.9 ± 6.8	443.88 ± 6.9
20000 kPa	423.2 ± 6.6	425.42 ± 6.6	427.75 ± 6.6	430.18 ± 6.7	432.72 ± 6.7	435.37 ± 6.7	438.13 ± 6.8	440.99 ± 6.8	443.96 ± 6.9
30000 kPa	423.41 ± 6.6	425.63 ± 6.6	427.95 ± 6.6	430.38 ± 6.7	432.91 ± 6.7	435.55 ± 6.8	438.29 ± 6.8	441.14 ± 6.8	444.09 ± 6.9
40000 kPa	423.63 ± 6.6	425.84 ± 6.6	428.15 ± 6.6	430.57 ± 6.7	433.09 ± 6.7	435.72 ± 6.8	438.45 ± 6.8	441.28 ± 6.8	444.22 ± 6.9
50000 kPa	423.85 ± 6.6	426.05 ± 6.6	428.36 ± 6.6	430.77 ± 6.7	433.28 ± 6.7	435.89 ± 6.8	438.61 ± 6.8	441.43 ± 6.8	444.35 ± 6.9
60000 kPa	424.07 ± 6.6	426.26 ± 6.6	428.56 ± 6.6	430.96 ± 6.7	433.46 ± 6.7	436.07 ± 6.8	438.77 ± 6.8	441.58 ± 6.8	444.49 ± 6.9
